Assay in all cases: NCI anticancer screen, dose series, 48 h
Assay [1] relates to A549 NSCLC.
Assay [2] has as its system KM12 colon.
Assay [3] concerns M14 melanoma.
In assay [4] the test system is MOLT-4 leukemia.
Assay [5] concerns SF-539 CNS.
Assay [6] deals with SK-MEL-28 melanoma.
The subject of assay [7] is U251 CNS.
Assay [8] concerns UACC-257 melanoma.
Assay [9] concerns T-47D breast.
Assay [10] has as its system RPMI-8226 leukemia.

“And” between values parts separate entries of the source, which are not always exact repeats. Equal entries are not always repeated.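 How tested: cells in 96-well plates exposed to compound for 48 hours at five concentrations. GI50 is the concentration that inhibits growth by half. TGI: concentration producing complete growth inhibition.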 Some results are limits rather than exact numbers.

For the compound `O=C(/C=C/c1ccccc1O)c1ccccc1Cl`, the TGI was more than 100 µM in assay [1]; more than 100 µM in assay [2]; more than 100 µM in assay [3]; 84.1 µM in assay [4]; more than 100 µM in assay [5]; more than 100 µM in [6]. For the same compound, the TGI in assay [7] and in [8] was more than 100 µM throughout.

With `O=[N+]([O-])/C=C/c1ccc(Cl)cc1[N+](=O)[O-]`, the GI50 in assay [1] is 6.72 µM; in assay [2] it was 3.09 µM; in assay [3], 4.42 µM; in [4], 3.09 µM; in assay [5], 2.65 µM; in assay [6] it was 14 µM. Moreover, the GI50 is 2.48 µM in assay [9], 1.95 µM in assay [7] and 11.9 µM in assay [8]. In addition, the TGI was 30.3 µM in assay [1]; more than 100 µM in assay [2]; 16.5 µM in [3]; 12.6 µM in assay [4]; 5.91 µM in assay [5]; 27.7 µM in [6]. The TGI stood at 5.96 µM in [9], 3.67 µM in assay [7] and 24.9 µM in assay [8].

Take `CCc1ccc2c(c1)N(CCO)C1=C(C(=O)OC1)C2c1cc(OC)c(OC)c(OC)c1` (stereo not given): the GI50 was 0.236 µM in assay [1]; 0.163 µM in [2]; 0.486 µM in assay [4]; 0.201 µM in [10]; 0.275 µM in assay [6]; 0.182 µM in [7]. In addition, the GI50 in assay [8] was 0.197 µM. Besides, the TGI was more than 50 µM in assay [1]; 0.987 µM in assay [2]; more than 50 µM in assay [4]; 42 µM in [10]; more than 50 µM in [6]; more than 50 µM in [7]. Further, the TGI in assay [8] was more than 50 µM.

As to `CC1(C)OC(=O)C(=C2CCC(C(=O)Nc3cccc(C(F)(F)F)c3)N2)C(=O)O1` (stereo not given), the TGI in assay [1], in assay [2], in assay [3], in assay [4], in [10] and in [5] was more than 100 µM throughout. Also, the TGI in assay [6], in [7] and in [8] was more than 100 µM in each case.

On to `COc1cc2c(c(OC)c1OC)C(=O)NCCC2`, for which the TGI in assay [1], in [2], in [3], in assay [4], in [10] and in [5] was more than 100 µM each time. Besides, the TGI in [6], in [7] and in assay [8] was more than 100 µM throughout.

For the compound `OCC(O)C(O)C(O)c1nn(-c2ccc(F)cc2)c2nc3cc(Cl)c(Cl)cc3nc12` (stereo not given), the TGI in assay [1] is 32 µM; in assay [2], 84.8 µM; in assay [3], 91.8 µM; in assay [4], 48.4 µM; in [10], more than 100 µM; in assay [5], 39.2 µM. The TGI in assay [6] is 41.9 µM; in [7], more than 100 µM; in assay [8], 55.1 µM.

Regarding `C=C1CC[C@H]2C(C)=CC[C@H]3C(=C)C(=O)O[C@@H]3[C@@H]12`, the TGI in assay [1], in assay [3], in assay [4], in [5], in [6] and in [9] was more than 100 µM throughout. Moreover, the TGI in assay [7] and in [8] was more than 100 µM each time.

For the compound `Cc1ccc(S(=O)C(C)C(Cl)c2ccccc2)cc1` (stereo not given), the TGI in [3], in assay [4], in [10], in [5], in [6] and in assay [7] was more than 100 µM each time. This compound came in with a TGI in [8] of more than 100 µM.

`COc1ccc(Br)c(C(=O)N2CCc3ccccc32)c1N`: the TGI in [1] was more than 100 µM; in [2] it was more than 100 µM; in [3], more than 100 µM; in assay [4], more than 100 µM; in [10], more than 100 µM; in [5] it was 97 µM. Further, the TGI in [6], in assay [7] and in [8] was more than 100 µM each time.

Regarding `O=NNc1ccc(S(=O)(=O)c2ccc3ccccc3c2)cn1`, the TGI in assay [1], in [2], in assay [3], in [5], in [6] and in assay [9] was more than 100 µM each time. Besides, the TGI in assay [7] and in assay [8] was more than 100 µM each time.

As to `COc1ccc(C2=Nn3c(nnc3-n3nc(C)cc3C)SC2)cc1`, the GI50 in assay [1] is 0.0765 µM; in [2] it was 0.057 µM; in assay [3] it was 0.0626 µM; in assay [4] it was 0.116 µM; in assay [10], 0.0605 µM; in assay [5], 0.023 µM. Also, the results for the GI50 in assay [6] and in assay [7] were 0.294 µM and 0.0532 µM, respectively. The TGI in assay [1] was more than 100 µM; in [2] it was more than 100 µM; in assay [3] it was more than 100 µM; in assay [4], more than 100 µM; in [10], more than 70.3 µM; in assay [5] it was 0.0594 µM. For the same compound, the TGI in assay [6] and in [7] was more than 100 µM in each case.

Take `O=C(O)CSc1n[nH]c(-c2ccco2)n1`: the TGI in assay [1], in [2], in assay [3], in [4], in assay [10] and in [5] was more than 100 µM throughout. For the same compound, the TGI in assay [6], in [7] and in [8] was more than 100 µM each time.

As for `N#CCc1cccc(CC#N)c1Br`, the TGI in [1], in [2], in assay [3], in assay [4], in assay [10] and in assay [5] was more than 100 µM throughout. Also, the TGI in [7] and in assay [8] was more than 100 µM throughout.

For the compound `Nc1ccccc1C#Cc1ccccc1C#Cc1cccs1`, the GI50 in [1] is 16.9 µM; in assay [2], 10.3 µM; in assay [3], 17.4 µM; in assay [4], 32.4 µM; in assay [10], 14.1 µM; in [5], 16.1 µM. Further, the GI50 is 15.7 µM in assay [6], 13.6 µM in [7] and 18.1 µM in [8]. Also, the TGI in assay [1] is more than 100 µM; in assay [2], 27.7 µM; in assay [3], 34.1 µM; in assay [4] it was more than 100 µM; in assay [10], 40.6 µM; in [5], 32.9 µM. The TGI in assay [6] is 41 µM; in assay [7], 27.3 µM; in [8] it was 53.2 µM.

Take `CCCCCCCCCCCCCCCC[n+]1ccccc1`: the GI50 was 0.468 µM and 1.21 µM in assay [1]; 0.28 µM in assay [3]; 0.95 µM in assay [5]; 1.25 µM in assay [6]; 0.5 µM and 0.445 µM in [9]; 0.326 µM and 0.535 µM in assay [7]. Moreover, the GI50 in [8] is 0.534 µM and 1.56 µM. In addition, the TGI was 1.86 µM and 2.95 µM in [1]; 1.04 µM in assay [3]; 2.35 µM in assay [5]; 2.56 µM in assay [6]; 3.42 µM and 3.91 µM in [9]; 1.36 µM and 1.92 µM in [7]. The TGI in assay [8] was 1.95 µM and 4.67 µM.

With `CCN(c1ccccc1)[C@H]1C(=O)N(c2ccc([N+](=O)[O-])cc2)[C@H]1c1ccc(OC)cc1`, the TGI in assay [1], in [2], in assay [4], in assay [10], in assay [5] and in [6] was more than 100 µM each time. In addition, the TGI in assay [7] and in [8] was more than 100 µM throughout.

For the compound `COc1cccc(/C=N\NC(=O)C(C)SC(C)C(=O)N/N=C/c2cccc(OC)c2)c1` (stereo not given), the TGI in assay [1] is 20.6 µM; in assay [2] it was more than 67.3 µM; in [3], more than 100 µM; in assay [4] it was more than 100 µM; in assay [10], more than 82.3 µM; in assay [5] it was more than 100 µM. Also, the results for the TGI in [6], in assay [7] and in assay [8] were more than 72.8 µM, 35.9 µM and more than 100 µM, respectively.

Turning to `C1=CC2CCC1CN2CCC1CNc2ccccc21` (stereo not given), the TGI in assay [1], in [2], in [3], in assay [4], in assay [10] and in assay [5] was more than 100 µM in each case. Moreover, the TGI in [6], in assay [7] and in [8] was more than 100 µM in each case.

With `COc1ccc(/C=N/NS(=O)(=O)c2ccccc2)cc1`, the TGI in assay [1], in [2], in assay [3], in [4], in assay [10] and in assay [5] was more than 100 µM in each case. Further, the TGI in assay [6], in assay [7] and in assay [8] was more than 100 µM each time.

As to `COc1cc(OC)c2c(=O)c3cccc([N+](=O)[O-])c3n(C)c2c1`, the TGI in [1], in assay [2], in [3], in [4], in [10] and in assay [5] was more than 100 µM in each case. The TGI in assay [6], in assay [7] and in assay [8] was more than 100 µM throughout.

Take `Cc1cc(NN=C(c2ccc(O)cc2)c2ccc(O)cc2)c([N+](=O)[O-])cc1[N+](=O)[O-]`: the GI50 was 2.47 µM in assay [1]; 4.6 µM in [2]; 4.5 µM in assay [3]; 1.84 µM in assay [4]; 1.32 µM in assay [10]; 5.59 µM in assay [6]. Moreover, the results for the GI50 in assay [7] and in assay [8] were 5.39 µM and 4.71 µM, respectively. In addition, the TGI in assay [1] was more than 100 µM; in [2], 24 µM; in [3] it was 21.1 µM; in assay [4] it was 14.6 µM; in [10] it was 4.16 µM; in [6], 21.2 µM. Besides, the results for the TGI in assay [7] and in [8] were 81.2 µM and 8.29 µM, respectively.

Consider `CCCCC1(C(NC(=O)c2ccccc2Cl)c2ccncc2)C(=O)N(c2ccccc2)N(c2ccccc2)C1=O` (stereo not given), for which the TGI was more than 100 µM in assay [1]; more than 100 µM in [2]; more than 100 µM in [3]; 50.3 µM in [4]; 84.1 µM in [10]; more than 100 µM in assay [5]. For the same compound, the TGI in assay [6], in [7] and in [8] was more than 100 µM throughout.

As for `C[C@H]1CC[P+](C)(c2ccccc2)C1` (stereo not given in full), the TGI in [1], in assay [2], in assay [3], in assay [4], in assay [10] and in assay [5] was more than 100 µM each time. The TGI in assay [6], in assay [7] and in [8] was more than 100 µM each time.

Take `COc1cc(N(C)C)c(OC)cc1C=C1C=CC=C1`: the TGI in assay [1], in assay [2], in assay [3], in assay [4], in assay [5] and in [6] was more than 100 µM each time. Besides, the TGI in [9] and in assay [7] was more than 100 µM throughout.

In the case of `CCOC1Oc2ccc(C)cc2C(=O)/C1=C\Nc1ccc(S(N)(=O)=O)cc1` (stereo not given), the GI50 is 13.9 µM in [1]; 12 µM in assay [2]; 9.32 µM in [3]; 13.9 µM in assay [4]; 6.21 µM in [10]; 7.49 µM in [5]. In addition, the GI50 was 14.5 µM in assay [6] and 12.9 µM in assay [7]. The TGI in assay [1] is more than 50 µM; in assay [2], 32.5 µM; in assay [3], 21.5 µM; in [4], more than 50 µM; in assay [10], 25.2 µM; in [5], 24.2 µM. Moreover, the TGI in assay [6] and in assay [7] was more than 50 µM throughout.

For `CN(C)c1ccc(C(O)C2=CC(=O)c3ccccc3C2=O)cc1` (stereo not given), the GI50 in assay [1] is 30.3 µM; in assay [2], 13.7 µM; in assay [3], 15.4 µM; in assay [10], 3.69 µM; in assay [5], 2.6 µM; in assay [7], 1.74 µM. Besides, the GI50 in assay [8] is 18.4 µM. For the same compound, the TGI in assay [1] was more than 100 µM; in assay [2], 91.4 µM; in [3] it was 29.4 µM; in assay [10], 66.8 µM; in assay [5], 6.08 µM; in assay [7], more than 100 µM. The compound further came in with a TGI in assay [8] of 41 µM.

(Values after PubChem BioAssay (NCI).)
